Reference: patent US7465716B2, “Targeted drug delivery with a hyaluronan ligand” (The Regents of the University of California, priority 1999, dated 2008)

Columns and labels:
[1] = system: B16F10 lung tumors; experiment: Chemotherapy of mice with B16F10 lung tumors (Table 4); type: in vivo, C57/BL6 mice; details: treated day 6, counted day 14, N = 9; HAL-dox and POPG-dox at 8 mg/kg
Method: The drug delivery systems of this invention can be tested in the B16F10 lung metastases model. The number of B16F10 tumor nodules was enumerated in the lung of syngeneic C57/BL6 mice 14days after intravenouss injection into the tail vein of 1×10^5, 3×10^5 and 1×10^6 B16F10 cells/mouse in a volume of 0.2 mL PBS. These cell numbers were used because they span the range reported to give a countable number of nodules in previous investigations. The animals were sacrificed and the lungs were removed 14 days post inoculation of B16F10 cells, and then fixed in Bouin's solution. The visible tumor nodules were assessed and counted under dissecting microscope. N=9 per group. The dose of 3×10^5 cells/mouse yielded a suitable number of nodules to provide an adequate statistical analysis. […] The distribution of hyaluronanliposomes in B16F10 tumorial mice was measured on day 14 after innoculation. […] The animals (n=7) were sacrificed 3 hours after injection, the organs removed, the lungs were fixed in Bouin's solution and the radioactivity in each organ determined by gamma scintillation spectroscopy (Table 3).
The chemotherapeutic efficacy of doxorubicin delivered in various forms in the B16F10 lung tumor model was compared by counting the nodules on day 14 after innoculation of mice with B16F10. […] The animals were sacrificed and tumor nodules: counted on day 14. […]

[2] = system: B16-F10 tumor nodules in the lung; experiment: Dose response on B16-F10 lung tumor nodules (Table 6); type: in vivo, C57/BI6 mice
Method: In this experiment groups of 10 animals were inoculated with the tumor cells on day zero and treated with the various formulations on day 6 as described above. To keep the lipid concentration constant as the dose of liposome encapsulated drug was reduced, HAL-Dox formulations were diluted with empty DSPG liposome (HSPC:Chol:DSPG 60:40:9 mole ration) to maintain the total lipid concentration at 1 micromole.

[3] = system: CV-1 cells; experiment: Chemosensitivity assay (SRB staining), CV-1 cells; type: cell-based, monkey; details: compared with B16F10 cells / free DOX
Text: FIGS. 5A and 5B show the DOX dose dependence cytotoxicity determined after treatment of B16F10 and CV-1 cells with non-encapsulated DOX and DOX-loaded HAL. […] To examine the specificity of the HAL we treated CV-1 cells with the three formulations. CV-1 cells express a very low level of CD44. […] Furthermore, the cytotoxicity of both the HAL and POPG liposomes was. similar, confirming the low interaction of the liposomes with CV-1 cells.
The cytotoxic effect of free DOX or Liposomes-encapsulated DOX on the cells was assayed colorimetrically by the sulforhodamine B (SRB) staining. A sample containing 16,000 B16F10 or 25,000 CV-1 cells (from an exponentially growing culture) in 100 μl aliquots were plated onto 96-well flat bottom microtiter plates. The culture plates were incubated for 24 hours at 37° C. and 5% CO2 and then the medium in each well was replaced with 100 μl serum-free and antibiotic-free medium containing various concentration of free or liposome-encapsulated DOX. For each 10-fold increase in drug concentration, four drug concentration levels were tested. […] The cultures were incubated at 4° C. for 1 h and then washed and analyzed for SRB staining of the monolayers as described. The measurement of the absorbance of the SRB at 564 nm in the monolayers was determined by an Optimax microplate reader (Molecular Devices, Sunnyvale, Calif.). […]

[4] = system: B16-F10 tumor nodules in the lung; experiment: Effect of liposome composition on B16-F10 lung tumor nodules (Table 5); type: in vivo, C57/BI6 mice; details: Doxorubicin 3 mg/kg on day 6, 10 mice/group
Method: As shown above, the presence of the targeting hyaluronan lipid, the type of lipid anchor that the hyaluronan was attached to and the lipid composition of the targeted liposomes influenced the anti-tumor effect. In this example, doxorubicin was encapsulated in liposomes of different compositions (described below in the liposome preparation) and injected into C57/BI6 mice at a dose of 3 mg/kg on day 6 after the mice had received the B16-F10 tumor as described above.
A specific, non-limiting example of doxorubicin loaded lipsome preparation involves thin lipid film hydration followed by sonication and extrusion. Briefly, the lipid components were weighed and dissolved in chloroform at the desired molar ratio(POPC:Chol:HA4-POPE:aT 60:40:3:0.1; POPC:Chol:POPG:aT 60:40:9:0.1; HSPC:Chol:PEG-DSPE:aT 56.2:38.3:5.3:0.1; HSPC:Chol:DPPG:aT 56.2:38.3:5.3:0.1; HSPC:Chol:HA4-DPPE:aT 56.2:38.3:5.3:0.1). […] Phospholipid concentration was determined by a phosphorous assay. DOX concentrations were determined by measurement of absorbance at 480 nm (using a molar coefficient=12,500) after solubilization of the liposomes in 90% isopropyl alcohol containing 0.075 M HCl. […] For both POPC and HSPC liposomes, mean vesicle diameter as measured by dynamic light scattering using the multimodal program was 120-150 nm (SD<35% of the mean) with a monodisperse particle size distribution. […]

[5] = 0.3 mg/kg, HAL-Dox = HAL-DPPE encapsulated Dox
[6] = 1 mg/kg, HAL-Dox = HAL-DPPE encapsulated Dox
[7] = 3 mg/kg, HAL-Dox = HAL-DPPE encapsulated Dox
[8] = 10 mg/kg, treated day 6, groups of 10

With `COc1cccc2c1C(=O)c1c(O)c3c(c(O)c1C2=O)C[C@@](O)(C(=O)CO)C[C@@H]3O[C@H]1C[C@H](N)[C@H](O)[C@H](C)O1` [free DOX, Doxorubicin] the “# nodules Mean” value [1] was 56.11 ± 49.48, the “# nodules Median” value [1] was 45 and the “# nodules Mean” value [2, 5] was 248.1 ± 56.9. The “# nodules Median” value [2, 5] was 250.5, the “# nodules Mean” value [2, 6] was 265.9 ± 34.5 and the “# nodules Median” value [2, 6] was 277. The “# nodules Mean” value [2, 7] was 208.2 ± 82.1, the “# nodules Median” value [2, 7] was 191 and the “# nodules Mean” value [2, 8] was 157.9 ± 70.6. The “# nodules Median” value [2, 8] was 151, the “cytotoxicity to CV-1 cells (in words)” value [3] was “significantly lower” and the “# nodules Mean” value [4] was 171.60 ± 71.79. The “# nodules Median” value [4] was 179.
